Tests used:
[1] = biological target: T1, ADP P2Y12 receptor (Homo sapiens, UniProt Q9H244); test: FLIPR calcium assay transducing Gi-coupled signaling to the Gq pathway (inhibition of ADP-induced calcium mobilization); type: cell-based; conditions: HEK 293 cells co-transfected with P2Y12 and Gqi5, ADP at EC60-70 dose
T1 construct: expressed in transfected cells
Source text: A FLIPR Calcium Assay Transducing Gi-Coupled Signaling to the Gq Pathway
The ADP P2Y12 subtype is a Gi coupled GPCR, which mediates inhibition of adenylate cyclase leading to decreased cAMP while Gq proteins primarily activate phospholipase C, which stimulates inositol-1,4,5-triphosphate (IP3) formation and a subsequent increase in intracellular Ca^2+ concentration, which can be easily measured by FLIPR. Prior to the development of a method to convert a Gi coupled GPCR signaling to a Gq coupled GPCR signaling, a significant barrier existed for the functional testing and screening of Gi coupled GPCRs. One popular method, GTPγS migration, is slow, produces a small signal and generates radioactive waste. The discovery that a small switch in the amino acid sequence in the Gi protein could convert it to a protein mediating a Gq coupled response has led to the development of robust, high throughput assays for this valuable receptor subtype.
The FLIPR-based HTS assay transducing the Gi signaling to the Gq pathway is described below.
pcDNA3hygroP2Y12 containing a hygromycin resistance gene and pLEC1-Gqi5-HA containing a neomycin resistance gene (licensed from Molecular Devices, Sunnyvale, Calif.) were co-transfected into Human embryonic kidney (HEK) 293 cells with SuperFect (Qiagen, Valencia, Calif.). Cell clones were selected in the presence of 600 μg/ml hygromycin B (Life Technologies, Carlsbad, Calif.) and 1 mg/ml of G418 (Mediatech, Herndon, Va.). Drug resistant colonies were picked and screened by FLIPR and the gene expression was further confirmed by RT-PCR. Positive clones were maintained in growth medium (DMEM supplemented with 10% FBS, 1× p/s) containing 400 μg/ml of G418 and 200 μg/ml of hygromycin.
The day before the assay, cells are seeded in clear, flat-bottom black-wall, tissue culture treated polystyrene 96- or 384-well plates and incubated at 37° C., 5% CO2. 50 μl of complete dye loading solution (FLIPR Calcium Assay Kit, Molecular Devices) was added to each well containing 100 μl of culture media. The cells were incubated for at least 30 min at 37° C., in 5% CO2 before initiating the assay on the FLIPR. The agonist effect of ADP was tested and EC50 was determined prior to compound testing. The EC60-70 dose was used.
The antagonist compounds were prepared at 4× and the agonists were diluted at 5× the concentration desired in the test wells, and then aliquoted into the sample plates. The sample plates and the cell plate were placed in the FLIPR assay chamber. A first addition (50 μl) was made at the start of reading and a second addition (50 μl) was made after 5 min of reading. Raw fluorescence data was exported for each well and tabulated versus time within an ASCII file. Data was then imported into Excel and the peak response over the basal level was determined. The percent inhibition for each compound was calculated by the change in fluorescent density as a % inhibition of the control ADP response to obtain an IC50, as shown in Table 1 (wherein N/A means Not Applicable).

[2] = tested on: platelets; test: In vitro platelet aggregation (ADP-induced, washed platelets); type: cell-based; conditions: Homo sapiens, washed platelets from healthy volunteers, agonist giving 60-70% aggregation, % inhibition of control ADP response
Description: Platelet aggregation studies were performed according to a published method (Bednar, B., Condra, C., Gould, R. J., and Connolly, T. M., Throm. Res., 77:453-463 (1995). Platelet-rich plasma (PRP) concentrates prepared from healthy volunteers who were aspirin free for at least 7 days by venipuncture using ACD-A as anticoagulant was purchased from Biological Specialties, Inc. (Colmar, Pa.). PRP was centrifuged at 730 g for 15 min. The platelet pellet was washed twice in CGS buffer (13 mM sodium citrate, 30 mM glucose, 120 mM NaCl, pH 6.5) containing 1 μ/ml apyrase (grade V, Sigma-Aldrich, St. Louis, Mo.), 1 mM EGTA, and resuspended in Tyrode's buffer (140 mM NaCl, 2.7 mM KCl, 12 mM NaHCO3, 0.76 mM Na2HPO4, 5.5 mM dextrose, 5.0 mM Hepes, 0.2% BSA, pH 7.4). The platelets were diluted to 3×10^8 platelets/ml and kept >45 min at 37° C. before use. 105 μl of washed platelets, 2 mM CaCl2 and […] of fibrinogen were added to a 96-well microliter plate.
Platelet aggregation was initiated by the addition of serial concentrations of ADP (BioData Corp. Horsham, Pa.). Buffer was added to one set of control wells. The assay plate was stirred constantly and intermittently placed in a microplate reader (Softmax, Molecular Devices, Menlo Park, Calif.) to read optical density (650 nm) at 0 and 5 minutes after the addition of the compound solutions. Aggregation was calculated as the decrease in optical density between the time 0- and 5-min measurements and expressed as % of aggregation. For the inhibition assay, platelet aggregation was conducted as described above except for compound additions. Test compounds were prepared in 100% DMSO and stored.
On the day of the assay, test compounds were diluted in the buffer containing 3% of DMSO as a 10× working solution. 15 μl of compound solutions were added to 105 μl of platelets 5 min prior to the addition of CaCl2 and fibrinogen.

[3] = biological target: T2, P2Y12 receptor (Homo sapiens, UniProt Q9H244); test: Whole cell receptor binding assay, 2-MeS[3H]-ADP; conditions: HEK 293 cells stably transfected with P2Y12; 2-MeS[3H]-ADP 3 nM; 30 min at 37° C.; read-out: Inhibition of Receptor Binding (IC50 μM)
T2 construct: expressed in transfected cells
T2 sequence (Q9H244 whole entry): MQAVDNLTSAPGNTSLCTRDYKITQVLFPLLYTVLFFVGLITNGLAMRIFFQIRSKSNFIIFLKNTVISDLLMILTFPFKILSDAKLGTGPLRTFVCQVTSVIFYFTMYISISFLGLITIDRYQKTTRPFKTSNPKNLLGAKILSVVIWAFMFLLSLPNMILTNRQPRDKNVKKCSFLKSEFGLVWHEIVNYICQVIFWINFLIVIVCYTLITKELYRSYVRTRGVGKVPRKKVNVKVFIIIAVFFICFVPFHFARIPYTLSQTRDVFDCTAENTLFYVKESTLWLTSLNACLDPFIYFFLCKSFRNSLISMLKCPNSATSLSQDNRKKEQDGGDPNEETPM
Description: A whole cell-binding assay for 2-MeS [^3H]-ADP (Custom synthesized by Amersham BioScience, Piscataway, N.J.) to the P2Y12 receptor was performed.
A P2Y12 cDNA containing hygromycin resistant gene was transfected in HEK 293 cells. A stable cell line was obtained by a cloning selection method. The cells were cultured in DMEM supplemented with 10% FBS and 1× of p/s.
On the day of the assay, the cells were harvested and resuspended in 0.25% BSA-DMEM and adjusted to a cell concentration of 1.6×10^6/ml. 15 μl of each compound was mixed with 120 μl of cell suspension in 96 well assay plates and incubated for 5 min prior to the addition of the radio-labeled ligand 2-MeS[^3H]-ADP (3 nM final in 0.25% BSA-DMEM) or unlabeled […] (for non-specific binding). The reaction was then incubated for 30 min at 37° C. and stopped by adding cold DMEM. The labeled and unlabeled cells were separated by a filtration method using a Packard Filtermate 196 on to the unfilter-96 GF/B plate. The plates were dyed in a 37° C. oven for 1-2 hours and 50 μl of MicroScint-20 (PerkinElmer) was added to each well. The radioactivity was measured using a TOPCOUNT beta counter (Packard). The percent inhibition for each compound was calculated by the change in radioactivity as a % inhibition of the control to obtain an IC50, as shown in Table 2.

T1 sequence (Q9H244 whole entry): as above

| Compound | IC50 [1] [µM] | IC50 [2] [µM] | IC50 [3] [µM] |
| --- | --- | --- | --- |
| CCCSc1nc(N[C@@H]2C[C@H]2c2ccccc2)c2nnn([C@@H]3C[C@H](c4nnn[nH]4)[C@@H](O)[C@H]3O)c2n1 (mixture of isomers) [Cpd 1, (1R,2S,3R,5R)-3-{7-[(1RS,2SR)-2-phenyl-cyclopropylamino]-5-propylsulfanyl-[1,2,3]triazolo[4,5-d]pyrimidin-3-yl}-5-(1H-tetrazol-5-yl)-cyclopentane-1,2-diol] | 0.037 | 0.037 | 0.0043 |
| CCCSc1nc(N[C@@H]2C[C@H]2c2ccccc2)c2nnn([C@@H]3C[C@H](Cn4ncnn4)[C@@H](O)[C@H]3O)c2n1 (mixture of isomers) [Cpd 3, (1R,2S,3R,5R)-3-{7-[(1RS,2SR)-2-phenyl-cyclopropylamino]-5-propylsulfanyl-[1,2,3]triazolo[4,5-d]pyrimidin-3-yl}-5-tetrazol-2-ylmethyl-cyclopentane-1,2-diol] | 0.595 | 1.24 | 0.148 |
| CCCSc1nc(N[C@@H]2C[C@H]2c2ccccc2)c2nnn([C@@H]3C[C@H](Cn4cnnn4)[C@@H](O)[C@H]3O)c2n1 (mixture of isomers) [Cpd 4, (1R,2S,3R,5R)-3-{7-[(1RS,2SR)-2-phenyl-cyclopropylamino]-5-propylsulfanyl-[1,2,3]triazolo[4,5-d]pyrimidin-3-yl}-5-tetrazol-1-ylmethyl-cyclopentane-1,2-diol] | 0.799 | 1.15 | 0.371 |
| CCCSc1nc(N[C@@H]2C[C@H]2c2ccccc2)c2nnn([C@@H]3C[C@H](Cn4ccnc4)[C@@H](O)[C@H]3O)c2n1 (mixture of isomers) [Cpd 5, (1S,2R,3R,5R)-3-imidazol-1-ylmethyl-5-{7-[(1RS,2SR)-2-phenyl-cyclopropylamino]-5-propylsulfanyl-[1,2,3]triazolo[4,5-d]pyrimidin-3-yl}-cyclopentane-1,2-diol] | 0.805 | 0.529 | 0.26 |
| CCCSc1nc(N[C@@H]2C[C@H]2c2ccccc2)c2nnn([C@@H]3C[C@H](Cn4nccn4)[C@@H](O)[C@H]3O)c2n1 (mixture of isomers) [Cpd 6, (1R,2S,3R,5R)-3-{7-[(1RS,2SR)-2-phenyl-cyclopropylamino]-5-propylsulfanyl-[1,2,3]triazolo[4,5-d]pyrimidin-3-yl}-5-[1,2,3]triazol-2-ylmethyl-cyclopentane-1,2-diol] | 0.98 | 0.954 | 0.437 |
| CCCSc1nc(N[C@@H]2C[C@H]2c2ccccc2)c2nnn([C@@H]3C[C@H](Cn4ccnn4)[C@@H](O)[C@H]3O)c2n1 (mixture of isomers) [Cpd 7, (1R,2S,3R,5R)-3-{7-[(1RS,2SR)-2-phenyl-cyclopropylamino]-5-propylsulfanyl-[1,2,3]triazolo[4,5-d]pyrimidin-3-yl}-5-[1,2,3]triazol-1-ylmethyl-cyclopentane-1,2-diol] | 0.507 | 0.333 | 0.134 |
| CCCSc1nc(N[C@@H]2C[C@H]2c2ccccc2)c2nnn([C@@H]3C[C@H](c4nnc(C)[nH]4)[C@@H](O)[C@H]3O)c2n1 (mixture of isomers) [Cpd 14, (1S,2R,3R,5R)-3-(5-methyl-4H-[1,2,4]triazol-3-yl)-5-{7-[(1RS,2SR)-2-phenyl-cyclopropylamino]-5-propylsulfanyl-[1,2,3]triazolo[4,5-d]pyrimidin-3-yl}-cyclopentane-1,2-diol] | 0.265 | 0.064 | 0.735 |
| CCCSc1nc(N[C@@H]2C[C@H]2c2ccccc2)c2nnn([C@@H]3C[C@H](c4nnc[nH]4)[C@@H](O)[C@H]3O)c2n1 (mixture of isomers) [Cpd 21, (1R,2S,3R,5R)-3-{7-[(1RS,2SR)-2-phenyl-cyclopropylamino]-5-propylsulfanyl-[1,2,3]triazolo[4,5-d]pyrimidin-3-yl}-5-(4H-[1,2,4]triazol-3-yl)-cyclopentane-1,2-diol] | 0.155 | 0.046 | 0.0659 |
| CCCCNc1nc(SCCC)nc2c1nnn2[C@@H]1C[C@H](c2nnn[nH]2)[C@@H](O)[C@H]1O [Cpd 2, (1R,2S,3R,5R)-3-(7-butylamino-5-propylsulfanyl-[1,2,3]triazolo[4,5-d]pyrimidin-3-yl)-5-(1H-tetrazol-5-yl)-cyclopentane-1,2-diol] | 0.045 | 0.315 | 0.0137 |
| CCCSc1nc(NCC(F)(F)F)c2nnn([C@@H]3C[C@H](c4nnn[nH]4)[C@@H](O)[C@H]3O)c2n1 [Cpd 8, (1R,2S,3R,5R)-3-[5-propylsulfanyl-7-(2,2,2-trifluoro-ethylamino)-[1,2,3]triazolo[4,5-d]pyrimidin-3-yl]-5-(1H-tetrazol-5-yl)-cyclopentane-1,2-diol] | 3.12 | 1.21 | 0.665 |
| CCCSc1nc(NC[C@@H]2CCCO2)c2nnn([C@@H]3C[C@H](c4nnn[nH]4)[C@@H](O)[C@H]3O)c2n1 [Cpd 9, (1R,2S,3R,5R)-3-(5-propylsulfanyl-7-{[(2S)-tetrahydro-furan-2-ylmethyl]-amino}-[1,2,3]triazolo[4,5-d]pyrimidin-3-yl)-5-(1H-tetrazol-5-yl)-cyclopentane-1,2-diol] | 2.02 | 4.37 | 0.237 |
| CCCSc1nc(NCC2CC2)c2nnn([C@@H]3C[C@H](c4nnn[nH]4)[C@@H](O)[C@H]3O)c2n1 [Cpd 10, (1R,2S,3R,5R)-3-[7-(cyclopropylmethyl-amino)-5-propylsulfanyl-[1,2,3]triazolo[4,5-d]pyrimidin-3-yl]-5-(1H-tetrazol-5-yl)-cyclopentane-1,2-diol] | 0.542 | 1.54 | 0.139 |
